Data as given in article PMC10648852, “Molecular drivers of resistance to sulbactam-durlobactam in contemporary clinical isolates of Acinetobacter baumannii” (Antimicrobial Agents and Chemotherapy, 2023).
Read-outs that look alike come from different tables or passages of the source.

How the values were obtained:
Assay in all cases: microbe, parasite or virus in culture
[1] = system: A. nosocomialis clinical isolate; type: cell-based; settings: Acinetobacter nosocomialis, isolate ARC7023 (IHMA 2118812), France, BSI, 2019, read-out: MIC
Description: (§1) The following report describes the genomic analysis of these isolates for likely resistance mechanisms. Biochemical analysis of purified PBP3 and phenotypic analyses of both clinical and isogenic strains were also conducted to determine the relative impact of key resistance determinants to SUL-DUR antibacterial activity.
(§2) Antimicrobial susceptibility testing was performed using broth microdilution following standardized methods established by the Clinical Laboratory Standards Institute (CLSI) ([35], [36]). […] MIC values were interpreted using CLSI breakpoints for all antimicrobial agents except those for which CLSI breakpoints are not available ([35]). SUL-DUR was tested as twofold dilutions of sulbactam in combination with a fixed concentration of 4 µg/mL durlobactam ([35]).

[2] = system: A. pittii clinical isolates; type: cell-based; settings: Acinetobacter pittii
Description: as §1, §2

[3] = system: A. baumannii clinical isolates; type: cell-based; settings: Acinetobacter baumannii
Description: as §1, §2

[4] = system: ABC clinical isolates with SUL-DUR MIC > 4 µg/mL; type: cell-based, Acinetobacter baumannii-calcoaceticus complex
Description: as §1, §2

`CC1(C)[C@H](C(=O)O)N2C(=O)C[C@H]2S1(=O)=O` [sulbactam] was tested, and the MIC [1] was 32 µg/mL, the MIC ([2]; isolate ARC6949 (IHMA 1898982), Romania, RTI, 2018, read-out: MIC) was 64 µg/mL and the MIC ([2]; isolate ARC6951 (IHMA 1776233), Philippines, RTI, 2018, read-out: MIC) was greater than 64 µg/mL. The MIC ([2]; isolate ARC6952 (IHMA 1899008), Romania, RTI, 2018, read-out: MIC) was greater than 64 µg/mL, the MIC ([2]; isolate ARC7087 (IHMA 2212062), Colombia, BSI, 2020, read-out: MIC) was 64 µg/mL and the MIC ([3]; isolate ARC6644 (IHMA 1420327), Mexico, UTI, 2016, read-out: MIC) was 64 µg/mL. For the same compound, the MIC ([3]; isolate ARC6645 (IHMA 1435703), France, UTI, 2016, read-out: MIC) was greater than 64 µg/mL, the MIC ([3]; isolate ARC6646 (IHMA 1484127), United States, RTI, 2016, read-out: MIC) was greater than 64 µg/mL and the MIC ([3]; isolate ARC6647 (IHMA 1386786), Argentina, RTI, 2016, read-out: MIC) was greater than 64 µg/mL. For the same compound, the MIC ([3]; isolate ARC6648 (IHMA 1407634), Spain, RTI, 2016, read-out: MIC) was 64 µg/mL, the MIC ([3]; isolate ARC6650 (IHMA 1457337), Argentina, RTI, 2016, read-out: MIC) was 64 µg/mL and the MIC ([3]; isolate ARC6652 (IHMA 1465642), Belgium, RTI, 2016, read-out: MIC) was greater than 64 µg/mL. It also gave an MIC ([3]; isolate ARC6653 (IHMA 1308777), Vietnam, RTI, 2016, read-out: MIC) greater than 64 µg/mL, an MIC ([3]; isolate ARC6799 (IHMA 1562935), Spain, UTI, 2017, read-out: MIC) greater than 64 µg/mL and an MIC ([3]; isolate ARC6800 (IHMA 1557526), Turkey, RTI, 2017, read-out: MIC) of 64 µg/mL. For the same compound, the MIC ([3]; isolate ARC6801 (IHMA 1662094), Thailand, RTI, 2017, read-out: MIC) was 64 µg/mL, the MIC ([3]; isolate ARC6802 (IHMA 1557073), Spain, UTI, 2017, read-out: MIC) was greater than 64 µg/mL and the MIC ([3]; isolate ARC6803 (IHMA 1589408), Belgium, UTI, 2017, read-out: MIC) was greater than 64 µg/mL. It also gave an MIC ([3]; isolate ARC6805 (IHMA 1558650), United States, RTI, 2017, read-out: MIC) of 64 µg/mL, an MIC ([3]; isolate ARC6808 (IHMA 1557168), Spain, RTI, 2017, read-out: MIC) of 16 µg/mL and an MIC ([3]; isolate ARC6809 (IHMA 1699528), Guatemala, RTI, 2017, read-out: MIC) greater than 64 µg/mL. For the same compound, the MIC ([3]; isolate ARC6810 (IHMA 1699548), Guatemala, RTI, 2017, read-out: MIC) was greater than 64 µg/mL, the MIC ([3]; isolate ARC6812 (IHMA 1699530), Guatemala, RTI, 2017, read-out: MIC) was greater than 64 µg/mL and the MIC ([3]; isolate ARC6813 (IHMA 1699543), Guatemala, UTI, 2017, read-out: MIC) was greater than 64 µg/mL. It also gave an MIC ([3]; isolate ARC6814 (IHMA 1699512), Guatemala, RTI, 2017, read-out: MIC) greater than 64 µg/mL, an MIC ([3]; isolate ARC6815 (IHMA 1699513), Guatemala, RTI, 2017, read-out: MIC) greater than 64 µg/mL and an MIC ([3]; isolate ARC6816 (IHMA 1699521), Guatemala, RTI, 2017, read-out: MIC) greater than 64 µg/mL. For the same compound, the MIC ([3]; isolate ARC6817 (IHMA 1699523), Guatemala, RTI, 2017, read-out: MIC) was greater than 64 µg/mL, the MIC ([3]; isolate ARC6818 (IHMA 1683261), Thailand, RTI, 2017, read-out: MIC) was 64 µg/mL and the MIC ([3]; isolate ARC6819 (IHMA 1683267), Thailand, RTI, 2017, read-out: MIC) was greater than 64 µg/mL. The MIC ([3]; isolate ARC6820 (IHMA 1647876), Argentina, RTI, 2017, read-out: MIC) was greater than 64 µg/mL, the MIC ([3]; isolate ARC6821 (IHMA 1699517), Guatemala, RTI, 2017, read-out: MIC) was greater than 64 µg/mL and the MIC ([3]; isolate ARC6822 (IHMA 1637626), Guatemala, RTI, 2017, read-out: MIC) was greater than 64 µg/mL. The MIC ([3]; isolate ARC6823 (IHMA 1620872), Greece, SSSI, 2017, read-out: MIC) was 32 µg/mL, the MIC ([3]; isolate ARC6824 (IHMA 1625487), Argentina, BSI, 2017, read-out: MIC) was 64 µg/mL and the MIC ([3]; isolate ARC6937 (IHMA 1562926), Spain, UTI, 2017, read-out: MIC) was greater than 64 µg/mL. The MIC ([3]; isolate ARC6950 (IHMA 1820064), Israel, RTI, 2018, read-out: MIC) was 64 µg/mL, the MIC ([3]; isolate ARC6953 (IHMA 1909827), Turkey, IAI, 2018, read-out: MIC) was 64 µg/mL and the MIC ([3]; isolate ARC6954 (IHMA 1838192), Guatemala, SSSI, 2018, read-out: MIC) was greater than 64 µg/mL. It also gave an MIC ([3]; isolate ARC6955 (IHMA 1825425), United States, RTI, 2018, read-out: MIC) of 16 µg/mL, an MIC ([3]; isolate ARC7008 (IHMA 2009813), Thailand, BSI, 2019, read-out: MIC) greater than 64 µg/mL and an MIC ([3]; isolate ARC7009 (IHMA 2043611), United States, UTI, 2019, read-out: MIC) greater than 64 µg/mL. It also gave an MIC ([3]; isolate ARC7010 (IHMA 2043398), United States, RTI, 2019, read-out: MIC) greater than 64 µg/mL, an MIC ([3]; isolate ARC7011 (IHMA 2104553), Germany, RTI, 2019, read-out: MIC) greater than 64 µg/mL and an MIC ([3]; isolate ARC7012 (IHMA 2010001), Thailand, RTI, 2019, read-out: MIC) greater than 64 µg/mL. The MIC ([3]; isolate ARC7013 (IHMA 1962831), Argentina, RTI, 2019, read-out: MIC) was greater than 64 µg/mL, the MIC ([3]; isolate ARC7014 (IHMA 2045328), Guatemala, IAI, 2019, read-out: MIC) was 64 µg/mL and the MIC ([3]; isolate ARC7015 (IHMA 2045327), Guatemala, UTI, 2019, read-out: MIC) was greater than 64 µg/mL. The MIC ([3]; isolate ARC7016 (IHMA 2148441), Brazil, BSI, 2019, read-out: MIC) was 64 µg/mL, the MIC ([3]; isolate ARC7017 (IHMA 2148446), Brazil, BSI, 2019, read-out: MIC) was 64 µg/mL and the MIC ([3]; isolate ARC7018 (IHMA 2045454), Guatemala, IAI, 2019, read-out: MIC) was greater than 64 µg/mL. It also gave an MIC ([3]; isolate ARC7019 (IHMA 2114463), Thailand, RTI, 2019, read-out: MIC) of 32 µg/mL, an MIC ([3]; isolate ARC7020 (IHMA 2045326), Guatemala, RTI, 2019, read-out: MIC) of 32 µg/mL and an MIC ([3]; isolate ARC7021 (IHMA 1966347), Guatemala, RTI, 2019, read-out: MIC) greater than 64 µg/mL. For the same compound, the MIC ([3]; isolate ARC7022 (IHMA 2045319), Guatemala, IAI, 2019, read-out: MIC) was 32 µg/mL, the MIC ([3]; isolate ARC7024 (IHMA 2059448), Turkey, RTI, 2019, read-out: MIC) was 64 µg/mL and the MIC ([3]; isolate ARC7025 (IHMA 2002121), Spain, RTI, 2019, read-out: MIC) was 32 µg/mL. It also gave an MIC ([3]; isolate ARC7026 (IHMA 2104494), Guatemala, BSI, 2019, read-out: MIC) of 32 µg/mL, an MIC ([3]; isolate ARC7082 (IHMA 2160640), Belgium, BSI, 2020, read-out: MIC) greater than 64 µg/mL and an MIC ([3]; isolate ARC7083 (IHMA 2163687), United States, RTI, 2020, read-out: MIC) of 64 µg/mL. The MIC ([3]; isolate ARC7084 (IHMA 2189596), Germany, RTI, 2020, read-out: MIC) was greater than 64 µg/mL, the MIC ([3]; isolate ARC7085 (IHMA 2205747), Guatemala, IAI, 2020, read-out: MIC) was greater than 64 µg/mL and the MIC ([3]; isolate ARC7086 (IHMA 2207563), Israel, RTI, 2020, read-out: MIC) was 32 µg/mL. The MIC ([3]; isolate ARC7088 (IHMA 2215554), Turkey, BSI, 2020, read-out: MIC) was greater than 64 µg/mL, the MIC ([3]; isolate ARC7089 (IHMA 2240345), Argentina, BSI, 2020, read-out: MIC) was greater than 64 µg/mL and the MIC ([3]; isolate ARC7090 (IHMA 2244410), Poland, RTI, 2020, read-out: MIC) was greater than 64 µg/mL. For the same compound, the MIC ([3]; isolate ARC7091 (IHMA 2244564), Australia, RTI, 2020, read-out: MIC) was greater than 64 µg/mL, the MIC ([3]; isolate ARC7092 (IHMA 2258772), United States, BSI, 2020, read-out: MIC) was greater than 64 µg/mL and the MIC ([3]; isolate ARC7093 (IHMA 2258783), United States, RTI, 2020, read-out: MIC) was 64 µg/mL. For the same compound, the MIC ([3]; isolate ARC7094 (IHMA 2296423), Turkey, RTI, 2020, read-out: MIC) was greater than 64 µg/mL, the MIC ([3]; isolate ARC7095 (IHMA 2320843), Turkey, BSI, 2020, read-out: MIC) was 64 µg/mL and the MIC ([3]; isolate ARC7156 (IHMA 2455450), Greece, RTI, 2021, read-out: MIC) was greater than 64 µg/mL. The MIC ([3]; isolate ARC7158 (IHMA 2523738), Italy, BSI, 2021, read-out: MIC) was greater than 64 µg/mL, the MIC ([3]; isolate ARC7159 (IHMA 2456229), Malaysia, RTI, 2021, read-out: MIC) was greater than 64 µg/mL and the MIC ([3]; isolate ARC7160 (IHMA 2458626), Thailand, RTI, 2021, read-out: MIC) was 64 µg/mL. The MIC ([3]; isolate ARC7161 (IHMA 2429252), Ukraine, RTI, 2021, read-out: MIC) was 8 µg/mL, the MIC ([3]; isolate ARC7162 (IHMA 2411847), United States, BSI, 2021, read-out: MIC) was greater than 64 µg/mL and the MIC ([3]; isolate ARC7163 (IHMA 2477704), United States, BSI, 2021, read-out: MIC) was greater than 64 µg/mL. The “%NS (% non-susceptibility)” value ([4]; 64 non-clonal ABC isolates, 2023 CLSI breakpoints plus FDA breakpoint of 4 µg/mL for SUL-DUR) was 100%, the MIC50 ([4]; Acinetobacter) was greater than 64 µg/mL and the MIC90 ([4]; Acinetobacter) was greater than 64 µg/mL. It also gave an MIC ([4]; Acinetobacter, read-out: MIC Max) greater than 64 µg/mL and an MIC ([4]; Acinetobacter, read-out: MIC Min) of 8 µg/mL.
